Results from patent publication US7030145B2, “Pyridinyl derivatives for the treatment of depression” (Bristol-Myers Squibb Company, priority 2003, dated 2006).
pKi: −log10 of the molar value.

biological target: T1, cloned human CRF-R1 receptors (Homo sapiens, UniProt P34998); assay: CRF-R1 receptor binding assay (inhibition of 125I-ovine-CRF binding to cell membranes); details: membranes of 293EBNA cells transfected with hCRFR1, class d = reported as percent inhibition at 10 μM, figures not given, read-out: activity (Ki class in the CRF assays)
T1 construct: the coding region was amplifies by PCR from start to stop codons; expressed in transfected cells; membranes
T1 sequence (P34998 24-415): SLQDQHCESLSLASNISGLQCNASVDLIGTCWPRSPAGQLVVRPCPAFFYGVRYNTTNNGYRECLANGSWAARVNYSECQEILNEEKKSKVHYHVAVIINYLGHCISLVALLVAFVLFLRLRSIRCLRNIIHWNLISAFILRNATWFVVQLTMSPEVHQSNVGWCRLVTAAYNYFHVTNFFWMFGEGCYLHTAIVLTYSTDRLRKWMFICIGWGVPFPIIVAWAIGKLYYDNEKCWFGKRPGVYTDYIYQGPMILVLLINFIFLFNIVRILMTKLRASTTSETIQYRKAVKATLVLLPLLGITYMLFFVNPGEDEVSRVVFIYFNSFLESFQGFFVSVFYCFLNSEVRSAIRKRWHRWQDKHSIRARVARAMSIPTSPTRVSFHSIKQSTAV
Source text: The following is a description of the isolation of cell membranes containing cloned human CRF-R1 receptors for use in a standard binding assay as well as a description of the assay itself.
Messenger RNA was isolated from human hippocampus. […]. The mRNA was reverse transcribed using oligo (dt) 12–18 and the coding region was amplifies by PCR from start to stop codons. The resulting PCR fragment was cloned into the EcoRV site of pGEMV, from whence the insert was reclaimed using XhoI+XbaI and cloned into the XhoI+XbaI sites of vector pm3 as (which contains a CMV promoter, the SV′t′ splice and early poly A signals, an Eptein-Barr viral origin of replication, and a hygromycin selectable marker). The resulting expression vector, called phchCRFR was transfected in 293EBNA cells and cells retaining the episome were selected in the presence of […] hygromycin. Cells surviving 4 weeks of selection in hygromycin were pooled, adapted to growth in suspension and used to generate membranes for the binding assay described below. Individual aliquots containing approximately 1×10^8 of the suspended cells were then centrifuged to form a pellet and frozen. For the binding assay a frozen pellet described above containing 293EBNA cells transfected with hCRFR1 receptors is homogenized in 10 mL of ice cold tissue buffer (50 mM HEPES buffer pH 7.0, containing 10 MM MgCl2, 2 mM EGTA, 1 μg/mL apotinin, 1 μg/mL leupeptin and 1 μg/mL pepstatin). The homoginate is centrifuged at 40,000×g for 12 min and the resulting pellet rehomogenized in 10 mL of tissue buffer. After another centrifugation at 40,000×g for 12 min, the pellet is resuspended to a protein concentration of 360 μg/mL to be used in the assay.
Binding assays are performed in 96 well plates; each well having a 300 μL capacity. To each well is added 50 μL of test drug dilutions (final concentration of drugs range from 10^−10–10^−5 M), 100 μL of ^125I-ovine-CRF (^125I-o-CRF) (final concentration 150 pM) and 150 μL of the cell homoginate described above. Plates are then allowed to incubate at room temperature for 2 hours before filtering the incubate over GF/F filters (presoaked with 0.3% polyethyleneimine) using an appropriate cell harvester. Filters are rinsed 2 times with ice cold assay buffer before removing individual filters and assessing them for radioactivity on a gamma counter.
Curves of the inhibition of ^125I-o-CRF binding to cell membranes at various dilutions of test drug are analyzed by the iterative curve fitting program LIGAND [P. J. Munson and D. Rodbard, Anal. Biochem., 107:220 (1980), which provides Ki values for inhibition which are then used to assess biological activity. […]
Messenger RNA was isolated from human hippocampus. The mRNA was isolated from human hippocampus. The mRNA was reverse transcribed using oligo (dt) 12–18 and the coding region was amplifies by PCR from start to stop codons. The resulting PCR fragment was cloned into the EcoRV site of pGEMV, from whence the insert was reclaimed using XhoI+XbaI and cloned into the XhoI+XbaI sites of vector pm3 as (which contains a CMV promoter, the SV′t′ splice and early poly A signals, an Eptein-Barr viral origin of replication, and a hygromycin selectable marker). The resulting expression vector, called phchCRFR was transfected in 293EBNA cells and cells retaining the episome were selected in the presence of […] hygromycin. Cells surviving 4 weeks of selection in hygromycin were pooled, adapted to growth in suspension and used to generate membranes for the binding assay described below. […]
A frozen pellet described above containing 293EBNA cells transfected with hCRFR1 receptors or the rat frontal cortex tissue dissected from frozen rat brains was prepared as the source of membranes expressing CRF1 receptors used in binding assays. […]

| Structure (SMILES) | pKi |
| --- | --- |
| Cc1cc(C)c(Nc2nc(C)ccc2S(=O)(=O)c2ccc(CO)cc2)c(C)c1 [Example 50, {4-[6-Methyl-2-(2,4,6-trimethylphenylamino)-pyridine-3-sulfonyl]-phenyl}-methanol] | 6.30 to 7.00 |
| Cc1cc(C)c(Nc2nc(C)ccc2S(=O)(=O)c2ccc(-c3ccccc3)cc2)c(C)c1 [Example 48, [3-(Biphenyl-4-sulfonyl)-6-methylpyridin-2-yl]-(2,4,6-trimethylphenyl)-amine] | ≥ 7.00 |
| Cc1cc(C)c(Nc2nc(C)ccc2S(=O)(=O)c2ccc(C)c(C)c2)c(C)c1 [Example 38, [3-(3,4-Dimethylbenzenesulfonyl)-6-methylpyridin-2-yl]-(2,4,6-trimethylphenyl)-amine] | 6.30 to 7.00 |
| CCc1ccc(S(=O)(=O)c2ccc(C)nc2Nc2c(C)cc(C)cc2C)cc1 [Example 42, [3-(4-Ethylbenzenesulfonyl)-6-methylpyridin-2-yl]-(2,4,6-trimethylphenyl)-amine] | ≥ 7.00 |
| Cc1cc(C)c(NCc2ccc(S(=O)(=O)c3ccc(C)nc3Nc3c(C)cc(C)cc3C)cc2)c(C)c1 [Example 51, (6-Methyl-3-{4-[(2,4,6-trimethylphenylamino)-methyl]-benzenesulfonyl}-pyridin-2-yl)-(2,4,6-trimethylphenyl)-amine] | 5.30 to 6.30 |
| COc1ccccc1-c1ccc(S(=O)(=O)c2ccc(C)nc2Nc2c(C)cc(C)cc2C)cc1 [Example 49, [3-(2′-Methoxybiphenyl-4-sulfonyl)-6-methylpyridin-2-yl]-(2,4,6-trimethylphenyl)-amine] | ≥ 7.00 |
| Cc1cc(C)c(Nc2nc(C)ccc2S(=O)(=O)c2ccc(C(C)C)cc2)c(C)c1 [Example 43, [3-(4-Isopropylbenzenesulfonyl)-6-methylpyridin-2-yl]-(2,4,6-trimethylphenyl)-amine] | 6.30 to 7.00 |
| Cc1cc(C)c(Nc2nc(C)ccc2S(=O)(=O)c2cccc(OCc3ccc(F)cc3)c2)c(C)c1 [Example 61, {3-[3-(4-Fluorobenzyloxy)-benzenesulfonyl]-6-methylpyridin-2-yl}-(2,4,6-trimethylphenyl)-amine] | 6.30 to 7.00 |
| C#Cc1ccc(S(=O)(=O)c2ccc(C)nc2Nc2c(C)cc(C)cc2C)cc1 [Example 47, [3-(4-Ethynylbenzenesulfonyl)-6-methylpyridin-2-yl]-(2,4,6-trimethylphenyl)-amine] | ≥ 7.00 |
| Cc1cc(C)c(Nc2nc(C)ccc2S(=O)(=O)c2ccc(F)cc2)c(C)c1 [Example 45, [3-(4-Fluorobenzenesulfonyl)-6-methylpyridin-2-yl]-(2,4,6-trimethylphenyl)-amine] | 6.30 to 7.00 |
| Cc1cc(C)c(Nc2nc(C)ccc2S(=O)(=O)c2ccc(OC(F)(F)F)cc2)c(C)c1 [Example 44, [6-Methyl-3-(4-trifluoromethoxybenzenesulfonyl)-pyridin-2-yl]-(2,4,6-trimethylphenyl)-amine] | 6.30 to 7.00 |
| CCc1ccc(S(=O)(=O)c2ccc(C)nc2Nc2ccc(C)cc2C)cc1 [Example 66, (2,4-Dimethylphenyl)-[3-(4-ethylbenzenesulfonyl)-6-methylpyridin-2-yl]-amine] | 6.30 to 7.00 |
| CCc1ccc(S(=O)(=O)c2ccc(C)nc2Nc2ccc(OC)cc2C)cc1 [Example 67, [3-(4-Ethylbenzenesulfonyl)-6-methylpyridin-2-yl]-(4-methoxy-2-methylphenyl)-amine] | ≥ 7.00 |
| C=CCOc1ccc(S(=O)(=O)c2ccc(C)nc2Nc2c(C)cc(C)cc2C)cc1 [Example 13, [3-(4-Allyloxybenzenesulfonyl)-6-methylpyridin-2-yl]-(2,4,6-trimethylphenyl)-amine] | 6.30 to 7.00 |
| C=CCOc1cccc(S(=O)(=O)c2ccc(C)nc2Nc2c(C)cc(C)cc2C)c1 [Example 59, [3-(3-Allyloxybenzenesulfonyl)-6-methylpyridin-2-yl]-(2,4,6-trimethylphenyl)-amine] | 6.30 to 7.00 |
| COc1cccc(COc2cccc(S(=O)(=O)c3ccc(C)nc3Nc3c(C)cc(C)cc3C)c2)c1 [Example 62, {3-[3-(3-Methoxybenzyloxy)-benzenesulfonyl]-6-methylpyridin-2-yl}-(2,4,6-trimethylphenyl)-amine] | 6.30 to 7.00 |
| Cc1cc(C)c(Nc2nc(C)ccc2S(=O)(=O)c2cccc(OCc3cc(Cl)nc(Cl)c3)c2)c(C)c1 [Example 65, {3-[3-(2,6-Dichloropyridin-4-ylmethoxy)-benzenesulfonyl]-6-methylpyridin-2-yl}-(2,4,6-trimethylphenyl)-amine] | 6.30 to 7.00 |

The remaining lines, values ahead:

| pKi | Structure (SMILES) |
| --- | --- |
| 5.30 to 6.30 | COc1ccc(S(=O)(=O)c2ccc(C)nc2Nc2c(C)cc(C)cc2C)cc1OC [Example 39, [3-(3,4-Dimethoxybenzenesulfonyl)-6-methylpyridin-2-yl]-(2,4,6-trimethylphenyl)-amine] |
| ≥ 7.00 | CCc1ccc(S(=O)(=O)c2ccc(C)nc2Nc2cc(C)c(C)cc2C)cc1 [Example 70, [3-(4-Ethylbenzenesulfonyl)-6-methylpyridin-2-yl]-(2,4,5-trimethylphenyl)-amine] |
| 6.30 to 7.00 | Cc1cc(C)c(Nc2nc(C)ccc2S(=O)(=O)c2cccc(OCc3ccccc3)c2)c(C)c1 [Example 60, [3-(3-Benzyloxybenzenesulfonyl)-6-methylpyridin-2-yl]-(2,4,6-trimethylphenyl)-amine] |
| 6.30 to 7.00 | Cc1ccc(S(=O)(=O)c2ccc(C)nc2Nc2c(C)cc(C)cc2C)cc1 [Example 41, [6-Methyl-3-(toluene-4-sulfonyl)-pyridin-2-yl]-(2,4,6-trimethylphenyl)-amine] |
| 6.30 to 7.00 | CCc1ccc(S(=O)(=O)c2ccc(C)nc2Nc2ccc(OC)cc2OC)cc1 [Example 68, (2,4-Dimethoxyphenyl)-[3-(4-ethylbenzenesulfonyl)-6-methylpyridin-2-yl]-amine] |
| 6.30 to 7.00 | Cc1cc(C)c(Nc2nc(C)ccc2S(=O)(=O)c2cccc(OCc3ccc(Cl)nc3)c2)c(C)c1 [Example 64, {3-[3-(6-Chloropyridin-3-ylmethoxy)-benzenesulfonyl]-6-methylpyridin-2-yl}-(2,4,6-trimethylphenyl)-amine] |
| 6.30 to 7.00 | Cc1cc(C)c(Nc2nc(C)ccc2S(=O)(=O)c2ccc(C(O)c3ccccc3)cc2)c(C)c1 (centres unmarked) [Example 53, {4-[6-Methyl-2-(2,4,6-trimethylphenylamino)-pyridine-3-sulfonyl]-phenyl}-phenyl-methanol] |
| 6.30 to 7.00 | Cc1cc(C)c(Nc2nc(C)ccc2S(=O)(=O)c2ccc(Cl)c(Cl)c2)c(C)c1 [Example 40, [3-(3,4-Dichlorobenzenesulfonyl)-6-methylpyridin-2-yl]-(2,4,6-trimethylphenyl)-amine] |
| 5.30 to 6.30 | Cc1cc(C)c(Nc2nc(C)ccc2S(=O)(=O)c2ccc(C=O)cc2)c(C)c1 [Example 52, 4-[6-Methyl-2-(2,4,6-trimethylphenylamino)-pyridine-3-sulfonyl]-benzaldehyde] |
